According to the METLIN SMRT retention time set (Domingo-Almenara et al. 2019):

experiment: gradient 5% acetonitrile 3 min, to 50% in 2 min, to 85% in 15 min, held 3 min, 100 µL/min; details: column: Zorbax Extend-C18 2.1 x 50 mm; eluents: water / acetonitrile, 0.1% formic acid
Outline: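 Retention times come from adduct peaks that were picked computationally and then checked by hand. The standards, pure and pooled in mixtures of ~100 molecules, were run on a Zorbax Extend-C18 column (2.1 × 50 mm, 1.8 μm) at 100 μL/min with water and acetonitrile, each with 0.1% formic acid. Detection was by quadrupole time-of-flight mass spectrometry in positive and negative ionization mode, with a dead volume of 40 μL and a dwell volume of 900 μL.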

| SMILES | RP-LC retention time |
| --- | --- |
| Fc1ccc(-c2noc(-c3ccc(NCCN4CCOCC4)nc3)n2)cc1 | 687 s |
| Cc1ccccc1NC(=O)c1nc2ccccc2[nH]c1=O | 735 s |
| Cn1c(N2CCCC(C(=O)N3CCN(c4ccccn4)CC3)C2)cc(=O)n(C)c1=O (stereo not given) | 578 s |
| O=C(Cc1nnc(-c2ccc3ncccc3c2)o1)N1CCN(c2ccccc2)CC1 | 716 s |
| Cc1ccc(S(=O)(=O)N2CCC(CCNC(=O)NC(C)C)CC2)cc1 | 796 s |
| COc1ccc(C2(C(=O)N3CCCCCCN(C)C(=O)[C@@H]4CCC[C@@H]43)CC2)cc1 | 922 s |
| Cc1cc(C)cc(OCCNC(=O)Nc2cc(F)ccc2F)c1 | 992 s |
| CCOC(=O)C1CCN(C(=O)C2CCCN(c3ccc(-c4ccc(C)c(C)c4)nn3)C2)CC1 (stereo not given) | 761 s |
| CCn1c(C(=O)N2CCN(c3ncccn3)CC2)cc2cc(S(=O)(=O)N(C)C)ccc21 | 830 s |
| CCc1ccc(S(=O)(=O)N2CCC(c3nc(C(=O)N4CCCC4)c(C)o3)CC2)cc1 | 1010 s |
| CN(C)C[C@@H]1CN(S(C)(=O)=O)C[C@H]1NC(=O)COc1ccc(Cl)cc1 | 629 s |
| Cc1cc(C)nc(NS(=O)(=O)c2ccc(Nc3nc(-c4ccc(C(C)C)cc4)cs3)cc2)n1 | 1120 s |
| CCOC(=O)c1cnc2c(-c3ccc(F)cc3)c(C)nn2c1N | 1020 s |
| Cn1c(=O)n([C@H]2CCN(C(=O)Nc3ccc4c(c3)OCCO4)C2)c2ncccc21 | 686 s |
| COc1ncccc1CNC(=O)NCc1ccc(F)cc1 | 668 s |
| COC(=O)c1ccc(NC(=O)Cn2c3cc(Cl)ccc3c(=O)n2C(C)(C)C)cc1 | 1300 s |
| COc1ccc(Cn2nccc2NC(=O)c2cc(=O)c3cc(Cl)ccc3o2)cc1 | 866 s |
| COC(=O)CNC(=O)N1Cc2ccccc2OC2(CCN(C(C)C)CC2)C1 | 595 s |
| CC(C)CC(NC(=O)c1ccccc1)C(=O)Nc1nc2ccccc2[nH]1 (stereo not given) | 725 s |
| CCOc1ccc(-n2c(=O)c3sccc3n(Cc3nc(-c4ccc(F)cc4)no3)c2=O)cc1 | 982 s |
| CCOCC(=O)N1CCCn2ccnc2C1C1CCCC1 (stereo not given) | 587 s |
| COc1ccc(C(C)NC(=O)c2cnn3c(-c4ccc5c(c4)OCO5)ccnc23)cc1OC (stereo not given) | 875 s |
| COc1ccc(NC(=O)C2CCN(S(=O)(=O)c3cc4c(cc3C)NC(=O)CO4)CC2)cc1 | 754 s |

| SMILES | RP-LC retention time |
| --- | --- |
| CN(C)c1nc(N)c(C(=O)N=C(N)N)nc1Cl | 661 s |
| S=C(NCc1ccc2c(c1)OCO2)N1CCN(c2ncnc3c2oc2ccccc23)CC1 | 875 s |
| Cc1cc(C)cc(N2CCC(NC(=O)Nc3ccc(F)cc3F)C2=O)c1 (stereo not given) | 904 s |
| Cc1ccc(C)c(N2CCN(c3ccnc(SCC(=O)NCCC4=CCCCC4)n3)CC2)c1 | 1090 s |
| O=C(CN1CCN(C(=O)Nc2ccc(Br)cc2)CC1=O)NCc1ccccn1 | 615 s |
| CCN(CC)C(=O)c1ccc2c(c1)N(CC(=O)N1CCOCC1)C(=O)CS2 | 642 s |
| O=C(Nc1cccc(Cl)c1)N1CCc2[nH]cnc2C1c1ccncc1 (stereo not given) | 572 s |
| Cc1c(Cl)cccc1NC(=O)C(C)C1CCN(C(=O)Nc2ccc(F)cc2)CC1 (stereo not given) | 904 s |
| CC(C)c1noc(C2Cc3ccccc3N2C(=O)Nc2ccc3c(c2)OCCO3)n1 (stereo not given) | 936 s |
| CC1(O)CCOC2(CCN(Cc3cccc4[nH]ccc34)CC2)C1 (stereo not given) | 589 s |
| Cc1nnsc1C(=O)Nc1nnc(Cc2ccc3c(c2)OCO3)o1 | 740 s |
| Cc1ccc(-c2noc(C3CCCN3C(=O)C3CC(=O)N(c4ccc(C)cc4)C3)n2)cc1 (stereo not given) | 989 s |
| CCN1CCn2cc(S(=O)(=O)Nc3cc(F)ccc3F)cc2C1=O | 715 s |
| COc1ccc(OC)c(CNC(=O)c2ccc(-c3cncnc3)nc2)c1 | 700 s |
| Cc1ccc(-n2c(N3CCCC(C(=O)NCc4ccc(Cl)cc4)C3)nc3ccsc3c2=O)cc1 (stereo not given) | 956 s |
| Cc1occc1-c1nnc2sc(COc3ccccc3Cl)nn12 | 994 s |
| Cc1cc(C)n(CCNC(=O)C(=O)Nc2ccc(Cl)cn2)n1 | 692 s |
| Cc1ccnc(Nc2nc(-c3cc(C)c(C)cc3C)cs2)c1 | 953 s |
| CC(C)C(NC(=O)Nc1ccc2c(c1)OCO2)C(=O)N1CCc2ccccc21 (stereo not given) | 898 s |
| O=C(NCc1ccccn1)c1nnc(-c2ccc(S(=O)(=O)N3CCCCC3)cc2)o1 | 732 s |
| Cc1ccc(-c2nc3cnccn3c2Nc2ccc(C(=O)NCc3ccco3)cc2)cc1 | 753 s |
| CO[C@H]1C(=O)N(C(C)C)[C@H]1C1CCN(C(=O)c2cnn(C)c2)CC1 | 612 s |
| CCOc1ccc(C(=O)N2CCc3c(c(-c4nc(C5CC5)no4)nn3C)C2)cc1 | 837 s |

| SMILES | RP-LC retention time |
| --- | --- |
| Cc1nn(CC(=O)NCCCN2CCOCC2)c(=O)c2c(-n3cccc3)n(-c3ccc(F)cc3)nc12 | 665 s |
| Cn1cnc2c(C(=O)NCC3CCCO3)nn(-c3ccccc3)c2c1=O (stereo not given) | 641 s |
| COC(=O)C(C)(N)Cc1ccc(O)cc1 (stereo not given) | 573 s |
| CCCNC(=O)C1CCN(c2cnc(N3CCCCCC3)nc2)CC1 | 666 s |
| COc1ccc2[nH]cc(CCNC(=O)Cn3nc(C)c4nn(-c5ccccc5)c(C)c4c3=O)c2c1 | 817 s |
| O=C(NCCN1CCOCC1)C1CN(C(=O)c2ccccc2)CC12CCCCC2 (stereo not given) | 605 s |
| COc1ccc(NC(=O)c2cc(C(C)(C)C)n3nccc3n2)c(C)c1 | 1240 s |
| COC(=O)c1ccc(C(=O)Nc2cccc3c(OC)cccc23)cc1 | 821 s |
| O=C(NC1CCc2ccccc21)C1CCN(C(=O)c2ncn3c2COC(c2ccccc2)C3)CC1 (stereo not given) | 809 s |
| O=C(Cn1cccc1-c1nnc(C2CC2)o1)NCc1cccc(Br)c1 | 869 s |
| COc1ccccc1C(=O)NC1(C(F)(F)F)C(=O)N(C2CCCCC2)C(C)=C1C(C)=O (stereo not given) | 1080 s |
| CC1CCCN(CCCNC(=O)CCCn2c(=O)c3cccn3c3ccc(F)cc32)C1 (stereo not given) | 650 s |
| COc1ccc(-c2cn3cccnc3n2)cc1NC(=O)c1ccc(Br)cc1 | 738 s |
| CCCNc1cc(N2CCC(CCC(=O)N(C)Cc3ccccc3)CC2)ncn1 | 702 s |
| CCOc1nccnc1NC1CCN(C(=O)c2ccc(C)s2)CC1 | 726 s |
| COc1ccc(NC(=O)Cn2c(=O)n(-c3ccccc3)c3ncccc32)c(OC)c1 | 808 s |
| O=C(c1cc2c(s1)-c1ccccc1S(=O)(=O)C2)N1CCN(c2ccccn2)CC1 | 605 s |
| Clc1ccc(Nc2c(-c3ccc(Cl)cc3)nc3ccc(Cl)cn23)cc1 | 1090 s |
| COc1ccc(NC(=O)CCc2c(C)nn(-c3cc(N(C)C)ncn3)c2C)cc1 | 733 s |
| Cc1oc(C2CCC2)nc1C(=O)NCc1cccc(C(F)(F)F)c1 | 1110 s |
| O=C(NCCc1ccco1)c1cc2n(n1)CCCN(Cc1ccc(Cl)cc1)C2=O | 857 s |
| Cc1ccc(NS(=O)(=O)c2cc(-c3nc(C(C)C)cs3)cs2)c(Br)c1 | 1220 s |
| CCOC(=O)c1cccc(NC(=O)C2CCCN(c3ncnc4c3nc3n4CCCCC3)C2)c1 (stereo not given) | 876 s |

| SMILES | RP-LC retention time |
| --- | --- |
| CCOC(=O)c1cccc(NC(=O)c2c(OCC)cc(=O)n3c2CCCC3)c1 | 772 s |
| O=C(NCCc1ccccc1)NCCc1ccsc1 | 764 s |
| CCCNc1cc(N2CCC(CCC(=O)NCc3cccnc3)CC2)ncn1 | 556 s |
| O=C(Cn1nc2nc(N3CCCC3)ccn2c1=O)NCc1ccc(F)c(Cl)c1 | 670 s |
| COc1cc(NC(=O)c2noc3c2CCCC3)cc(OC)c1OC | 876 s |
| O=C(COc1ccccc1F)NC1CC(=O)N(C2CC2)C1 (stereo not given) | 611 s |
| CC(C)n1cc(C2=CCN(C(=O)NC3CCCCC3)CC2)c2cccnc21 | 945 s |
| COc1ccc(-c2cn3c(CC(=O)N4CCN(c5cccc(Cl)c5)CC4)csc3n2)cc1OC | 835 s |
| O=C(CC(=O)Nc1ccccc1F)Nc1ccc2nc3n(c(=O)c2c1)CCCCC3 | 722 s |
| COc1ccc2c(CCNC(=O)C(C)C)c[nH]c2c1 | 706 s |
| CCc1ccc(S(=O)(=O)N2CCC(c3nc(C(=O)N4CCOCC4)c(C)o3)CC2)cc1 | 904 s |
| CCOc1ccccc1CNC(=O)CN1CCN(Cc2cccc(Cl)c2)C1=O | 910 s |
| CCCNc1cc(-n2cccn2)ncn1 | 668 s |
| O=C(NC1CCCCC1)C1CCN(C(=O)c2ncn3c2COC(c2ccc(Cl)cc2)C3)CC1 (stereo not given) | 844 s |
| Cc1ccsc1C(=O)NCC1CCCCC(=O)N1 (stereo not given) | 640 s |
| O=C(NCc1ccccc1)N1CCC(OCc2nc(C3CC3)no2)CC1 | 776 s |
| O=C(NCCSCc1ccco1)c1cc(-c2cccnc2)nc2ccccc12 | 738 s |
| O=C(c1cc(-c2ccncc2)nc2ccc(Cl)cc12)N1CCN(c2ccccn2)CC1 | 604 s |
| O=C(c1ccsc1)N1CCCC(OCc2nc(C3CC3)no2)C1 (stereo not given) | 766 s |
| CCCCOc1ccc2c(=O)c3ccc(O)cc3oc2c1 | 928 s |
| CCC(=O)Nc1ccc(SCc2cc(C)ccc2C)nn1 | 919 s |
